In US20040131619A1, “Thymic atrophy” (DUKE UNIVERSITY, priority 2002, published 2004):

Assays:
[1] = tested on: CD3+, CD4/CD8 DP thymocytes; test: Murine fetal thymic organ culture (FTOC); format: cell-based, mouse
Experimental: Phenotypic analysis of thymocyte suspensions was performed on a FACSVantage SE (Becton Dickinson) using fluorescein isothiocyanate-CD3, phycoerythrin-CD4, and phycoerythrin cychrome 5-CD8 (Pharmingen) as previously described (Sempowski et al, Journal of Immunology 164:2180 (2000)). Annexin V-FITC/propidium iodide (PI) staining was used to determine thymocyte apoptosis, necrosis and viability (Coulter).
FTOC were established following the methods described by Vacchio et al. (Journal of Experimental Medicine 185:2033 (1997)). Briefly, thymic lobes were removed from 17 day gestation fetal mice and were cultured in 6-well plates on Gelfoam (Pharmacia & Upjohn, Kalamazoo, Mich.) rafts. Cultures (2-4 lobes/well) were treated with murine LIF (R&D Systems) with or without metyrapone and then harvested by disruption against a 70 μm cell strainer (Becton Dickinson) with a 1 cc plunger (Becton Dickinson). Total thymocyte number per lobe was determined by hemacytometer count with trypan dye exclusion.
To directly determine if LIF can induce intrathymic corticosteroid production and thymocyte depletion, 17 day fetal thymic lobes in FTOC were treated with LIF (10 ng/ml) in the presence or absence of metyrapone (FIG. 4). Absolute numbers of CD3^+, CD4/CD8 DP thymocytes were quantitated as a measure of in vitro LIF-induced thymic atrophy after 72 hours. […]

[2] = tested on: BALB/c mice; test: LIF-induced acute thymic atrophy (metyrapone pre-treatment, adrenalectomy); format: in vivo; details: metyrapone 30 mg/kg IP 24 hours before LIF for 3 days; P<0.0094
Experimental: Normal and adrenalectomized female BALB/c mice (6-8 week) were purchased from The Jackson Laboratory (Bar Harbor, Me.). Animals were housed in specific pathogen free conditions in the Duke University Vivarium Barrier (Durham, N.C.). Mouse handling and experimental procedures were conducted in accordance with AALAC and the Duke University IACUC guidelines for animal care and use.
Animals were treated with either E. coli LPS (Sigma, L2880, St. Louis, Mo.), recombinant murine LIF (R&D Systems, Minneapolis, Minn.), goat IgG (Sigma) or anti-mouse LIF polyclonal goat IgG (R&D Systems) and metyrapone (Sigma). Mouse thymus tissue was excised following euthanasia. Half of each thymus was snap frozen in a dry ice/ETOH bath and stored in liquid nitrogen for RNA extraction and the other half was teased into a single-cell suspension as previously described (Sempowski et al, Journal of Immunology 164:2180 (2000)). […]
Normal and bilaterally adrenalectomized BALB/c mice were treated with LIF (3 μg, 3× a day) or saline for 3 days, and the degree of thymic atrophy assessed. […] To evaluate the status of LIF mRNA in the thymus of LIF injected mice, thymus LIF mRNA levels were determined in control and LIF-treated mice. […]

CC(C)(C(=O)c1cccnc1)c1cccnc1 [Metyrapone, metyrapone]
depletion of DP thymocytes ([1]; FTOC, 72 hours, agent alone (LIF 10 ng/ml; metyrapone alone), P<0.05): 8%
LIF-induced depletion of DP thymocytes ([1]; metyrapone added to LIF-treated (10 ng/ml) FTOC): prevented
inhibition of LIF-induced acute thymic atrophy [2]: 43%
